{
  "source": "BigSolDB 2.1",
  "data": [
    {"smiles": "O=C(O)c1ccc[nH]c1=O", "values": [
      {"measurement": "solubility (mole fraction)", "setting": "in acetone, 293.15 K", "result": 0.00135},
      {"measurement": "solubility (mole fraction)", "setting": "in acetone, 303.15 K", "result": 0.00199},
      {"measurement": "solubility (mole fraction)", "setting": "in acetone, 308.15 K", "result": 0.00233},
      {"measurement": "solubility (mole fraction)", "setting": "in acetone, 313.15 K", "result": 0.00277},
      {"measurement": "solubility (mole fraction)", "setting": "in acetone, 318.15 K", "result": 0.0033},
      {"measurement": "solubility (mole fraction)", "setting": "in acetone, 323.15 K", "result": 0.00374},
      {"measurement": "solubility (mole fraction)", "setting": "in acetonitrile, 293.15 K", "result": 0.000837},
      {"measurement": "solubility (mole fraction)", "setting": "in acetonitrile, 303.15 K", "result": 0.00116},
      {"measurement": "solubility (mole fraction)", "setting": "in acetonitrile, 313.15 K", "result": 0.00169},
      {"measurement": "solubility (mole fraction)", "setting": "in acetonitrile, 318.15 K", "result": 0.0019},
      {"measurement": "solubility (mole fraction)", "setting": "in acetonitrile, 323.15 K", "result": 0.00218},
      {"measurement": "solubility (mole fraction)", "setting": "in acetonitrile, 333.15 K", "result": 0.00282},
      {"measurement": "solubility (mole fraction)", "setting": "in ethanol, 293.15 K", "result": 0.000992},
      {"measurement": "solubility (mole fraction)", "setting": "in ethanol, 303.15 K", "result": 0.00134},
      {"measurement": "solubility (mole fraction)", "setting": "in ethanol, 313.15 K", "result": 0.00177},
      {"measurement": "solubility (mole fraction)", "setting": "in ethanol, 318.15 K", "result": 0.00218},
      {"measurement": "solubility (mole fraction)", "setting": "in ethanol, 323.15 K", "result": 0.0025},
      {"measurement": "solubility (mole fraction)", "setting": "in ethanol, 333.15 K", "result": 0.00351},
      {"measurement": "solubility (mole fraction)", "setting": "in ethyl acetate, 293.15 K", "result": 0.000248},
      {"measurement": "solubility (mole fraction)", "setting": "in ethyl acetate, 303.15 K", "result": 0.000365},
      {"measurement": "solubility (mole fraction)", "setting": "in ethyl acetate, 313.15 K", "result": 0.000559},
      {"measurement": "solubility (mole fraction)", "setting": "in ethyl acetate, 318.15 K", "result": 0.000661},
      {"measurement": "solubility (mole fraction)", "setting": "in ethyl acetate, 323.15 K", "result": 0.000795},
      {"measurement": "solubility (mole fraction)", "setting": "in ethyl acetate, 333.15 K", "result": 0.00124},
      {"measurement": "solubility (mole fraction)", "setting": "in isopropanol, 293.15 K", "result": 0.000278},
      {"measurement": "solubility (mole fraction)", "setting": "in isopropanol, 303.15 K", "result": 0.000401},
      {"measurement": "solubility (mole fraction)", "setting": "in isopropanol, 313.15 K", "result": 0.000565},
      {"measurement": "solubility (mole fraction)", "setting": "in isopropanol, 318.15 K", "result": 0.000595},
      {"measurement": "solubility (mole fraction)", "setting": "in isopropanol, 323.15 K", "result": 0.000772},
      {"measurement": "solubility (mole fraction)", "setting": "in isopropanol, 333.15 K", "result": 0.00106},
      {"measurement": "solubility (mole fraction)", "setting": "in methanol, 293.15 K", "result": 0.00097},
      {"measurement": "solubility (mole fraction)", "setting": "in methanol, 303.15 K", "result": 0.00146},
      {"measurement": "solubility (mole fraction)", "setting": "in methanol, 313.15 K", "result": 0.0021},
      {"measurement": "solubility (mole fraction)", "setting": "in methanol, 318.15 K", "result": 0.00253},
      {"measurement": "solubility (mole fraction)", "setting": "in methanol, 323.15 K", "result": 0.00297},
      {"measurement": "solubility (mole fraction)", "setting": "in methanol, 333.15 K", "result": 0.00378},
      {"measurement": "solubility (mole fraction)", "setting": "in n-butanol, 293.15 K", "result": 0.000215},
      {"measurement": "solubility (mole fraction)", "setting": "in n-butanol, 303.15 K", "result": 0.00031},
      {"measurement": "solubility (mole fraction)", "setting": "in n-butanol, 313.15 K", "result": 0.000437},
      {"measurement": "solubility (mole fraction)", "setting": "in n-butanol, 318.15 K", "result": 0.000515},
      {"measurement": "solubility (mole fraction)", "setting": "in n-butanol, 323.15 K", "result": 0.000603},
      {"measurement": "solubility (mole fraction)", "setting": "in n-butanol, 333.15 K", "result": 0.000817},
      {"measurement": "solubility (mole fraction)", "setting": "in n-butyl acetate, 293.15 K", "result": "5.2e-05"},
      {"measurement": "solubility (mole fraction)", "setting": "in n-butyl acetate, 303.15 K", "result": "7.5e-05"},
      {"measurement": "solubility (mole fraction)", "setting": "in n-butyl acetate, 313.15 K", "result": 0.000105},
      {"measurement": "solubility (mole fraction)", "setting": "in n-butyl acetate, 318.15 K", "result": 0.000124},
      {"measurement": "solubility (mole fraction)", "setting": "in n-butyl acetate, 323.15 K", "result": 0.000146},
      {"measurement": "solubility (mole fraction)", "setting": "in n-butyl acetate, 333.15 K", "result": 0.000197},
      {"measurement": "solubility (mole fraction)", "setting": "in sec-butanol, 293.15 K", "result": 0.000138},
      {"measurement": "solubility (mole fraction)", "setting": "in sec-butanol, 303.15 K", "result": 0.000199},
      {"measurement": "solubility (mole fraction)", "setting": "in sec-butanol, 313.15 K", "result": 0.000283},
      {"measurement": "solubility (mole fraction)", "setting": "in sec-butanol, 318.15 K", "result": 0.000331},
      {"measurement": "solubility (mole fraction)", "setting": "in sec-butanol, 323.15 K", "result": 0.000384},
      {"measurement": "solubility (mole fraction)", "setting": "in sec-butanol, 333.15 K", "result": 0.000525},
      {"measurement": "solubility (mole fraction)", "setting": "in water, 293.15 K", "result": 0.000796},
      {"measurement": "solubility (mole fraction)", "setting": "in water, 303.15 K", "result": 0.00111},
      {"measurement": "solubility (mole fraction)", "setting": "in water, 313.15 K", "result": 0.00159},
      {"measurement": "solubility (mole fraction)", "setting": "in water, 318.15 K", "result": 0.00195},
      {"measurement": "solubility (mole fraction)", "setting": "in water, 323.15 K", "result": 0.00237},
      {"measurement": "solubility (mole fraction)", "setting": "in water, 333.15 K", "result": 0.00326}
    ]}
  ]
}
